Assay results from US6815546B2, “Analogues of camptothecin, their use as medicaments and the pharmaceutical compositions containing them” (Societe de Recherches et d'Applications Scientifiques …, priority 1995, dated 2004).

Target: T1, DNA topoisomerase 1 of purified calf thymus (Bos taurus, UniProt F1MN93)
T1 construct: DNA topoisomerase 1 of purified calf thymus (Gibco-BRL, Paisley, United Kingdom); purchased Gibco-BRL, Paisley, United Kingdom; host or cells: calf thymus tissue
T1 sequence (F1MN93 1-767): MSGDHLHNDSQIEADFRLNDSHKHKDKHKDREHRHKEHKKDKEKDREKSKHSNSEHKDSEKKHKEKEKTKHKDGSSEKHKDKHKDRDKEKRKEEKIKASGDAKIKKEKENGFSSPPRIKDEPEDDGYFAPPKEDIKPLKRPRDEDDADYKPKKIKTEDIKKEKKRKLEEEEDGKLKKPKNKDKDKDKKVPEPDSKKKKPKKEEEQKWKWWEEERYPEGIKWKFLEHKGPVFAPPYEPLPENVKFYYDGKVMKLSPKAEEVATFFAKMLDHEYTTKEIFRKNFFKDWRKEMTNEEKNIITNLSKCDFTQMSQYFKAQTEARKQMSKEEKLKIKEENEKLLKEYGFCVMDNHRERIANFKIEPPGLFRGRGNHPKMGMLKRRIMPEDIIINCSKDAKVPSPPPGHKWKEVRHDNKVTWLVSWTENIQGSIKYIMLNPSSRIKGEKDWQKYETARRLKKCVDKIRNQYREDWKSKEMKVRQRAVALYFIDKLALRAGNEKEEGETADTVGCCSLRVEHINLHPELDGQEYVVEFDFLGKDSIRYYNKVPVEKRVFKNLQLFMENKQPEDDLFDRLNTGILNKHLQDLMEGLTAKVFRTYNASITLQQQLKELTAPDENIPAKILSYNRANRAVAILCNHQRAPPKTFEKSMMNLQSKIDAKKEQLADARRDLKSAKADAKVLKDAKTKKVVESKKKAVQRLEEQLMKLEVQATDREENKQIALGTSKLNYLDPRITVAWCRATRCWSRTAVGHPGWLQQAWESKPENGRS
Experiment: Relaxation activity test of DNA induced by topoisomerase 1
Format: biochemical
Settings: supercoiled pUC19, 15 minutes at 37° C.
Procedure: 1. Relaxation Activity Test of DNA Induced by Topoisomerase 1
All the reactions are carried out in a 20 μl reaction buffer constituted by 50 mM of Tris-HCl (pH 7.5), 50 mM of KCl, 0.5 mM of dithiothreitol, 10 mM of MgCl2, 0.1 mM of ethyldiamine tetraacetic acid (EDTA), 30 μg/ml of bovine serum albumin and 300 ng of supercoiled pUC19 (Pharmacia Biotech, Orsay, France) with or without the compounds to be tested at defined concentrations. All the compounds to be tested are initially dissolved in dimethylsulphoxide (DMSO) at 50 mM, the other dilutions being carried out with distilled water. […] The reaction is initiated by the addition of a unit of DNA topoisomerase 1 of purified calf thymus (Gibco-BRL, Paisley, United Kingdom) and is carried out for 15 minutes at 37° C. The reactions are stopped by the addition of 3 μl of a mixture containing 1% dodecyl sodium sulphate at 1%, 20 mM of EDTA and 500 μg/ml of K proteinase (Boehringer Mannheim, Meylan, France). After an additional incubation period of 30 minutes at 37° C., 2 μl of a loading buffer containing 10 mM of Na2HPO4, 0.3% of bromophenol blue et 16% Ficoll are added to samples which are subjected to electrophoresis in agarose gels at 1.2% at 1 V/cm for 20 hours in a buffer containing 36 mM of Tris-HCl at pH 7.8, 30 mM of Na2HPO4, 1 mM of EDTA and 2 μg/ml of chloroquine. The gels are stained with 2 μg/ml of ethidium bromide, photographed under UV light at 312 nm with a camera and the fluorescent intensity is measured with a bioProfil camera (Vilber Lournat, Lyon, France) with a view to determining the percentage of relaxed DNA. Each experiment is carried out at least three times in duplicate.
In each experiment, the supercoiled plasmid DNA is incubated alone or with topoisomerase 1. The reaction is completed within 15 minutes. For each compound to be tested or control, the supercoiled plasmid DNA is incubated in the presence of 500 μM of compound to be tested with enzyme or without enzyme plus the compound to be tested, at concentrations of 10 μM, 100 μM, 200 μM and 500 μM.

Row | Compound | PERCENTAGE OF RELAXED DNA (10 μM compound) | PERCENTAGE OF RELAXED DNA (100 μM compound) | PERCENTAGE OF RELAXED DNA (200 μM compound) | PERCENTAGE OF RELAXED DNA (500 μM compound)
1 | CCC1(O)CC(=O)OCc2c1cc1n(c2=O)Cc2cc3ccccc3nc2-1 (centres unmarked) [Example 3, 5-ethyl-5-hydroxy-1,4,5,13-tetrahydro-3H,15H-oxepino [3′,4′:6,7]indolizino[1,2-b]quinoline-3,15-dione] | 79.9% | 59.9% | 55.0% | 45.7%
2 | CCC(O)(CC(=O)O)c1cc2n(c(=O)c1CO)Cc1cc3ccccc3nc1-2 (centres unmarked) [Example 4, 3-hydroxy-3-[8-(hydroxymethyl)-9-oxo-9,11-dihydroindolizino [1,2-b]quinolin-7-yl]pentanoic acid] | 99.1% | 82.2% | 67.6% | 32.9%
3 | CCc1c2c(nc3ccccc13)-c1cc3c(c(=O)n1C2)COC(=O)CC3(O)CC (centres unmarked) [Example 9, 5,12-diethyl-5-hydroxy-1,4,5,13-tetrahydro-3H,15H-oxepino[3′,4′:6,7]indolizino[1,2-b]quinoline-3,15-dione] | 77.1% | 33.9% | 29.7% | 20.4%
4 | CCc1c2c(nc3ccccc13)-c1cc(C(O)(CC)CC(=O)O)c(CO)c(=O)n1C2 (centres unmarked) [Example 10, 3-[12-ethyl-8-(hydroxymethyl)-9-oxo-9,11-dihydroindolizino[1,2-b]quinolin-7-yl]-3-hydroxypentanoic acid] | 96.9% | 45.4% | 26.2% | 8.7%
5 | CCC1(O)CC(=O)OCc2c1cc1n(c2=O)Cc2cc3cc4c(cc3nc2-1)OCCO4 (centres unmarked) [Example 11, 8-ethyl-8-hydroxy-2,3,8,9,12,15-hexahydro-10H,13H-[1,4]dioxino [2,3-g]oxepino[3′,4′:6,7]indolizino[1,2-b]quinoline-10,13-dione] | 65.0% | 50.3% | 39.8% | 31.0%
